Source: the supplement of paper PMC10307832

Assays:
Experiment in all cases: relative viability (nuclei count vs DMSO), 5 days (fraction); higher = more cells survive
[1] = compound: Cc1nc(NC(=O)N2CCC[C@H]2C(N)=O)sc1-c1ccnc(C(C)(C)C(F)(F)F)c1 [Alpelisib] + COc1cccc2cc(-c3nc([C@H]4CC[C@H](C(=O)O)CC4)n4ncnc(N)c34)[nH]c12 [OSI-027] (partner 0.5 µM)
Procedure, shortened: (§1)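 Cells from lung cancer lines were seeded into 1536-well plates and, one day later, dosed by pin tool. Treatments were either a single drug or a fixed dose of an anchor drug with five library-drug doses (not always all listed) in √10 steps. After 5 days, nuclei were stained in a one-step fixation (final 0.05% Triton X-100, 1% formaldehyde, 1 ug/ml Hoechst) and counted on 4× images, and relative viability is the treated-to-vehicle nuclei ratio, as the median of duplicate plates.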

[2] = compound: COc1cccc2cc(-c3nc([C@H]4CC[C@H](C(=O)O)CC4)n4ncnc(N)c34)[nH]c12 [OSI-027] + CC(=O)Nc1cccc(-n2c(=O)n(C3CC3)c(=O)c3c(Nc4ccc(I)cc4F)n(C)c(=O)c(C)c32)c1 [Trametinib] (partner 0.02 µM)
Procedure, shortened: as §1

[3] = compound: COc1cccc2cc(-c3nc([C@H]4CC[C@H](C(=O)O)CC4)n4ncnc(N)c34)[nH]c12 [OSI-027] + C[C@@H](Oc1cc(-c2cnn(C3CCNCC3)c2)cnc1N)c1c(Cl)ccc(F)c1Cl [Crizotinib] (partner 1 µM)
Procedure, shortened: as §1

[4] = compound: CCCS(=O)(=O)Nc1ccc(F)c(C(=O)c2c[nH]c3ncc(-c4ccc(Cl)cc4)cc23)c1F [Vemurafenib] + CS(=O)(=O)N1CCN(Cc2cc3nc(-c4cccc5[nH]ncc45)nc(N4CCOCC4)c3s2)CC1 [Pictilisib] (partner 1 µM)
Procedure, shortened: as §1

Cell Line	relative viability ([1]; first compound 0.04 µM)	relative viability ([1]; first compound 0.1265 µM)	relative viability ([1]; first compound 0.4 µM)	relative viability ([1]; first compound 1.265 µM)	relative viability ([1]; first compound 4 µM)	relative viability ([2]; first compound 0.01 µM)	relative viability ([2]; first compound 0.03162 µM)	relative viability ([2]; first compound 0.1 µM)	relative viability ([2]; first compound 0.3162 µM)	relative viability ([2]; first compound 1 µM)	relative viability ([3]; first compound 0.01 µM)	relative viability ([3]; first compound 0.03162 µM)	relative viability ([3]; first compound 0.1 µM)	relative viability ([3]; first compound 0.3162 µM)	relative viability ([3]; first compound 1 µM)	relative viability ([4]; first compound 0.03162 µM)	relative viability ([4]; first compound 0.1 µM)	relative viability ([4]; first compound 0.3162 µM)	relative viability ([4]; first compound 1 µM)
HCC-78	0.378	0.306	0.324	0.335	0.318	0.689	0.646	0.74	0.637	0.35	0.289	0.322	0.33	0.274	0.185	0.222	0.214	0.429	0.185
HCC-366	0.867	0.877	0.762	0.473	0.355	0.333	0.433	0.454	0.282	0.195	0.817	0.315	0.52	0.415	0.119	0.137	0.15	–	0.163
HCC-827	0.808	0.803	0.689	0.57	0.384	0.555	0.491	0.45	0.433	0.309	0.924	0.969	0.915	1.01	0.649	0.791	–	1.03	0.981
HOP-62	0.822	0.793	0.949	0.626	0.589	0.383	0.347	0.375	0.329	0.294	1.02	0.922	0.999	1.36	0.428	0.739	0.589	0.517	0.458
IA-LM	–	–	–	–	–	–	–	–	–	–	0.96	0.578	0.78	0.249	0.139	0.309	0.358	0.758	0.476
LC-2-ad	0.783	0.692	0.712	0.478	0.416	0.903	0.872	0.945	0.927	0.694	0.49	0.483	0.458	0.474	0.384	0.436	0.396	0.635	0.432
LCLC-97TM1	0.434	0.391	0.243	0.181	0.1	0.168	0.182	0.157	0.147	0.168	0.246	0.407	0.322	0.267	0.105	0.195	0.194	0.39	0.149
LCLC-103H	0.486	0.439	0.435	0.372	0.335	0.708	0.645	0.65	0.609	0.689	1.07	1.03	1.18	0.948	1.01	0.585	0.506	0.584	0.59
LK-2	0.215	0.208	0.16	0.142	0.158	0.766	0.578	0.594	0.406	0.221	0.199	0.229	0.273	0.242	0.203	0.618	0.49	0.661	0.425
LOU-NH91	0.754	0.601	0.638	0.543	0.49	0.766	0.785	0.66	0.591	0.579	0.73	0.726	0.693	0.681	0.508	0.535	0.459	–	0.525
LU99A	0.306	0.3	0.296	0.234	0.224	0.581	0.508	0.424	0.342	0.209	0.522	0.522	0.46	0.313	0.208	0.282	0.311	0.297	0.286
LXF-289	0.725	0.626	0.685	0.567	0.427	0.681	0.707	0.752	0.612	0.357	0.859	0.827	0.892	0.909	0.759	0.711	0.724	0.698	0.758
NCI-H522	0.722	0.622	0.605	0.629	0.5	0.691	0.709	0.725	0.632	0.463	–	–	–	–	–	–	–	–	–
NCI-H1299	–	–	–	–	–	–	–	–	–	–	0.994	0.984	0.937	1.04	0.937	0.732	0.719	0.843	0.622
NCI-H1395	0.593	0.558	0.717	0.588	0.634	1.1	1.02	0.957	0.863	0.648	–	–	–	–	–	0.672	0.613	–	0.521
NCI-H1563	0.743	0.774	0.7	0.584	0.541	–	–	–	–	–	0.835	0.894	0.768	0.701	0.733	0.666	0.621	0.584	0.647
NCI-H1623	0.494	0.338	0.383	0.34	0.28	–	–	–	–	–	–	–	–	–	–	–	–	–	–
NCI-H1648	–	0.229	0.244	0.282	0.228	0.481	0.449	–	0.49	0.321	–	–	–	–	–	–	–	–	–
NCI-H1703	–	–	–	–	–	–	–	–	–	–	0.753	0.591	0.595	0.672	0.374	0.245	0.21	0.233	0.252
NCI-H1793	0.284	0.24	0.228	0.195	0.161	0.489	0.431	0.35	0.344	0.21	–	–	–	–	–	0.442	–	0.477	0.379
NCI-H2342	0.626	0.594	0.553	0.559	0.421	0.802	0.816	0.724	0.687	0.556	–	–	–	–	–	–	–	–	–
SW 900	0.527	0.524	0.742	0.568	0.45	0.933	0.866	0.789	0.712	0.608	–	–	–	–	–	–	–	–	–
